Laboratory results as given in patent US20230103462A1, “TOPICAL PHARMACEUTICAL COMPOSITION IN GEL FORM COMPRISING AT LEAST AMITRIPTYLINE FOR USE IN THE TREATMENT OF NEUROPATHIC PHANTOM LIMB PAIN” (priority 2021, published 2023).

Test: Comparative ex vivo study of the percutaneous absorption of amitriptyline (Frantz cell)
Assay type: in vitro ADME
Conditions: human skin ex vivo, compositions with 10% amitriptyline hydrochloride
Procedure: Comparative ex vivo study of the percutaneous absorption of amitriptyline in a formulation A in aqueous gel form (invention) and in a formulation B in cream form (comparative). Each of compositions A and B was applied on separate human skin samples. For each composition, the experiment was repeated 3 times with 3 skin samples from 3 different donors, i.e., 9 samples. The skin samples are mounted in a Frantz cell and are heated to a surface temperature of 32° C.±1° C. Composition A or B is spread evenly using a spatula on each skin sample at a rate of 10 mg per cell, corresponding to 5 mg/cm^2 of skin. The skin samples are rinsed 16 hours after application. Each skin sample was placed with a tweezers on a paper towel (dermis facing downward). The stratum corneum is removed using adhesive strips. After removing the stratum corneum, the sample is perforated. The epidermis is then separated from the dermis. Each of them is placed in separate bottles. The different samples were then extracted.

CN(C)CCC=C1c2ccccc2CCc2ccccc21 [amitriptyline, Amitriptyline]
systemic passage of amitriptyline: less than 0.1 % of the administered dose
